In US9963467B2, “Boronic acid derivatives and therapeutic uses thereof” (Rempex Pharmaceuticals, Inc., priority 2014, dated 2018):

Key:
[1] = tested on: KP1009 (CTX-M-15); test: organism not typed; assay type: cell-based
[2] = tested on: ECL1002; test: Aztreonam potentiation (MPC@4), ECL1002; assay type: cell-based
[3] = tested on: ec302 (TEM-10); test: Aztreonam potentiation (MPC@4), ec302; assay type: cell-based
[4] = tested on: EC1010 (CMY-6); test: organism not typed; assay type: cell-based
[5] = tested on: KP1005 (CTX-M-14); test: Aztreonam potentiation (MPC@4), KP1005; assay type: cell-based
[6] = tested on: strains of various bacteria that are resistant to aztreonam due to expression of various β-lactamases; test: Aztreonam MIC of test strains; assay type: cell-based; conditions: read-out: Aztreonam MICs of test strains; across the test strains
[7] = tested on: KP1004 (KPC-2); test: Aztreonam potentiation (MPC@4), KP1004; assay type: cell-based; conditions: read-out: Aztreonam MIC KP1004
[8] = tested on: ec308 (SHV-5); test: Aztreonam potentiation (MPC@4), ec308; assay type: cell-based; conditions: for AZT MPC4 SHV-5 ec308: BLI with aztreonam at 4 μg/mL
[9] = tested on: KP1010 (SHV-12); test: Aztreonam potentiation (MPC@4), KP1010; assay type: cell-based
[10] = tested on: ECL1002; test: Tigemonam potentiation (MPC@4), ECL1002; assay type: cell-based; conditions: for TIG MPC4 ECL1002: BLI with tigemonam at 4 μg/mL
[11] = tested on: ec308 (SHV-5); test: Tigemonam potentiation (MPC@4), ec308; assay type: cell-based
[12] = tested on: KP1009 (CTX-M-15); test: Tigemonam potentiation (MPC@4), KP1009; assay type: cell-based; conditions: for TIG MPC4 CTX-M-15 KP1009: BLI with tigemonam at 4 μg/mL
[13] = tested on: ec302 (TEM-10); test: Tigemonam potentiation (MPC@4), ec302; assay type: cell-based
[14] = tested on: PAM1032/KPC-2; test: Biapenem potentiation MPC64, PAM1032/KPC-2 (efflux proficient); assay type: cell-based, Pseudomonas aeruginosa; conditions: BLI to decrease MIC of biapenem 64-fold; MexAB-OprM overexpressed
Protocol: (§1) Efflux of BLIs from Pseudomonas aeruginosa by the MexAB-OprM efflux pump was also evaluated. […] Due to expression of KPC-2 both strains became resistant to biapenem. […] Potency of BLIs to potentiate biapenem in these strains was determined. […] The ratio of MPC64 values for each BLI in PAM1032/KPC-2 (efflux proficient) and PAM1154/KPC-2 (efflux deficient) was determined to generate the Efflux Index (EI).

[15] = tested on: KP1004 (KPC-2); test: Biapenem potentiation (MPC@1), KP1004; conditions: BLI with biapenem at 1 μg/mL
[16] = Intravenous pharmacokinetics; assay type: in vivo; conditions: rat, plasma; rats, 20 mg/kg, intravenous infusion over 0.5 hours; read-out: Free Cl (converted)
Protocol: Rats (n=3 per compound) were administered by a single infusion. Intravenous doses were infused over 0.5 hours via an indwelling femoral vein cannula. […] (˜0.3 mL) samples were collected from each rat at designated time points up to 24 hours. Blood samples were centrifuged within 5 min of collection at 12000 g for 5 min to obtain plasma. The plasma samples were stored at −80° C. until analyzed. Data were analyzed using WinNonlin. The doses of all compounds tested were 20 mg/kg.

[17] = tested on: KP1005 (CTX-M-14); test: Tigemonam potentiation (MPC@4), KP1005; assay type: cell-based; conditions: for TIG MPC4 CTX-M-14 KP1005: BLI with tigemonam at 4 μg/mL
[18] = tested on: KP1010 (SHV-12); test: Tigemonam potentiation (MPC@4), KP1010; assay type: cell-based
[19] = tested on: KP1086 (OXA-48); test: Biapenem potentiation (MPC@1), KP1086; conditions: BLI with biapenem at 1 μg/mL
[20] = tested on: strains overexpressing class A (ESBL) and class C beta-lactamases; test: Tigemonam MIC of test strains; assay type: cell-based; conditions: across the test strains
[21] = tested on: EC1010 (CMY-6); test: Tigemonam potentiation (MPC@4), EC1010; assay type: cell-based; conditions: tigemonam alone
[22] = target: OXA-48 (Klebsiella pneumoniae, UniProt Q6XEC0); test: Ki, nitrocefin cleavage by purified enzyme, OXA-48; assay type: biochemical; conditions: nitrocefin reporter substrate; read-out: Ki (OXA-48, NCF)
Summary of the method: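 Purified enzyme was preincubated with a range of inhibitor concentrations in reaction buffer for 10 min at room temperature. Nitrocefin was then added and its cleavage followed at 490 nm every 10 sec for 10 min.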

[23] = tested on: PAM1154/KPC-2; test: Biapenem potentiation MPC64, PAM1154/KPC-2 (efflux deficient); assay type: cell-based, Pseudomonas aeruginosa; conditions: BLI to decrease MIC of biapenem 64-fold; lacking MexAB-OprM
Protocol: as §1

Chain of OXA-48 (Q6XEC0 23-265, looked up, species assumed): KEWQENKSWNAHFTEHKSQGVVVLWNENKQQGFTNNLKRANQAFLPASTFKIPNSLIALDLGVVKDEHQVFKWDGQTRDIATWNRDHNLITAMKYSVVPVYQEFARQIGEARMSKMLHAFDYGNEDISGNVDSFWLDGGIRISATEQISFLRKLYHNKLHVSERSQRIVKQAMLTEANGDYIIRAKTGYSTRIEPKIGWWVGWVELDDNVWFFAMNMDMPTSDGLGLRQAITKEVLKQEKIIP

With `C[C@H]1[C@H](NC(=O)/C(=N\OC(C)(C)C(=O)O)c2csc(N)n2)C(=O)N1S(=O)(=O)O` [Aztreonam, reference compound] the MIC ([1]; read-out: Aztreonam MIC KP1009) was over 10 µg/mL, the MIC ([2]; read-out: Aztreonam MIC ECL1002) was over 10 µg/mL and the MIC ([3]; read-out: Aztreonam MIC ec302) was over 10 µg/mL. It also gave an MIC ([4]; read-out: Aztreonam MIC EC1010) of over 10 µg/mL, an MIC ([5]; read-out: Aztreonam MIC KP1005) of over 10 µg/mL and an MIC [6] of at least 64 µg/mL. The MIC [7] was over 10 µg/mL, the MIC ([8]; read-out: Aztreonam MIC ec308) was over 10 µg/mL and the MIC ([9]; read-out: Aztreonam MIC KP1010) was over 10 µg/mL.

In the case of `O=C(Cc1cccs1)N[C@H]1Cc2cccc(C(=O)O)c2OB1O` [I, reference compound], the “AZT MPC4 CTX-M-15 KP1009” value [1] is reported as “Y (key: X: MIC of less than 1 ng/mL; Y: MIC of 1 μg/mL to 10 μg/mL; Z: MIC of greater than 10 μg/mL)”, the “TIG MPC4 ECL1002” value [10] is reported as “X (MIC of less than 1 μg/mL)” and the “TIG MPC4 SHV-5 ec308” value [11] is reported as “X (key: X: MIC of less than 1 μg/mL; Y: MIC of 1 μg/mL to 10 μg/mL; Z: MIC of greater than 10 μg/mL)”. For the same compound, the “TIG MPC4 CTX-M-15 KP1009” value [12] was “Y (MIC of 1 μg/mL to 10 μg/mL)”, the “TIG MPC4 TEM-10 ec302” value [13] was “Z (key: X: MIC of less than 1 ng/mL; Y: MIC of 1 μg/mL to 10 μg/mL; Z: MIC of greater than 10 μg/mL)” and the “AZT MPC4 CMY-6 EC1010” value [4] was “Y (key: X: MIC of less than 1 ng/mL; Y: MIC of 1 μg/mL to 10 μg/mL; Z: MIC of greater than 10 μg/mL)”. For the same compound, the “PAM1032/KPC-2 Biapenem MPC64” value [14] was 80, the “BPM MPC1 KP1004 KPC-2” value [15] was “X (MIC of less than 1 μg/mL)” and the clearance [16] was 136 mL/min/kg. For the same compound, the “TIG MPC4 CTX-M-14 KP1005” value [17] was “Y (MIC of 1 μg/mL to 10 μg/mL)”, the “TIG MPC4 SHV-12 KP1010” value [18] was “X (key: X: MIC of less than 1 μg/mL; Y: MIC of 1 μg/mL to 10 μg/mL; Z: MIC of greater than 10 μg/mL)” and the “BPM MPC1 OXA-48 KP1086” value [19] was “Y (MIC of 1 μg/mL to 10 μg/mL)”. The “AZT MPC4 SHV-5 ec308” value [8] was “X (MIC of less than 1 ng/mL)” and the “AZT MPC4 SHV-12 KP1010” value [9] was “X (key: X: MIC of less than 1 ng/mL; Y: MIC of 1 μg/mL to 10 μg/mL; Z: MIC of greater than 10 μg/mL)”.

With `CC1(C)[C@H](NC(=O)/C(=N\OCC(=O)O)c2csc(N)n2)C(=O)N1OS(=O)(=O)O` [Tigemonam, reference compound] the “Tigemonam MIC ECL1002” value ([10]; tigemonam alone) was “Z (MIC of greater than 10 μg/mL)”, the “Tigemonam MIC ec308” value ([11]; tigemonam alone) was “Z (MIC of greater than 10 μg/mL)” and the “Tigemonam MIC KP1009” value ([12]; tigemonam alone) was “Z (MIC of greater than 10 μg/mL)”. For the same compound, the “Tigemonam MIC ec302” value ([13]; tigemonam alone) was “Z (MIC of greater than 10 μg/mL)”, the “Tigemonam MICs of test strains” value [20] was at least 16 µg/mL and the “Tigemonam MIC EC1010” value [21] was “Z (MIC of greater than 10 μg/mL)”. The “Tigemonam MIC KP1005” value ([17]; tigemonam alone) was “Z (MIC of greater than 10 μg/mL)” and the “Tigemonam MIC KP1010” value ([18]; tigemonam alone) was “Z (MIC of greater than 10 μg/mL)”.

In the case of `O=CN[C@H]1Cc2cccc(C(=O)O)c2OB1O` [F, reference compound], the “AZT MPC4 CTX-M-15 KP1009” value [1] is reported as “Y (key: X: MIC of less than 1 ng/mL; Y: MIC of 1 μg/mL to 10 μg/mL; Z: MIC of greater than 10 μg/mL)”, the “TIG MPC4 ECL1002” value [10] is reported as “X (MIC of less than 1 μg/mL)” and the “AZT MPC4 ECL1002” value ([2]; BLI with aztreonam at 4 μg/mL) is reported as “Y (MIC of 1 μg/mL to 10 μg/mL)”. The Ki [22] was under 1 nM, the “TIG MPC4 SHV-5 ec308” value [11] was “Y (key: X: MIC of less than 1 ng/mL; Y: MIC of 1 μg/mL to 10 μg/mL; Z: MIC of greater than 10 μg/mL)” and the “TIG MPC4 CTX-M-15 KP1009” value [12] was “Y (MIC of 1 μg/mL to 10 μg/mL)”. For the same compound, the “AZT MPC4 TEM-10 ec302” value ([3]; BLI with aztreonam at 4 μg/mL) was “Z (MIC of greater than 10 μg/mL)”, the “TIG MPC4 TEM-10 ec302” value [13] was “Z (key: X: MIC of less than 1 ng/mL; Y: MIC of 1 μg/mL to 10 μg/mL; Z: MIC of greater than 10 μg/mL)” and the “AZT MPC4 CMY-6 EC1010” value [4] was “Y (key: X: MIC of less than 1 ng/mL; Y: MIC of 1 μg/mL to 10 μg/mL; Z: MIC of greater than 10 μg/mL)”. For the same compound, the “PAM1032/KPC-2 Biapenem MPC64” value [14] was 5, the “PAM1154/KPC-2 Biapenem MPC64” value [23] was 1.25 and the “BPM MPC1 KP1004 KPC-2” value [15] was “X (MIC of less than 1 μg/mL)”. The “TIG MPC4 CTX-M-14 KP1005” value [17] was “Y (MIC of 1 μg/mL to 10 μg/mL)”, the “AZT MPC4 CTX-M-14 KP1005” value ([5]; BLI with aztreonam at 4 μg/mL) was “Y (MIC of 1 μg/mL to 10 μg/mL)” and the “TIG MPC4 SHV-12 KP1010” value [18] was “Y (key: X: MIC of less than 1 ng/mL; Y: MIC of 1 μg/mL to 10 μg/mL; Z: MIC of greater than 10 μg/mL)”. For the same compound, the “BPM MPC1 OXA-48 KP1086” value [19] was “Y (MIC of 1 μg/mL to 10 μg/mL)”, the “AZT MPC4 SHV-5 ec308” value [8] was “Y (MIC of 1 μg/mL to 10 μg/mL)” and the “AZT MPC4 SHV-12 KP1010” value [9] was “Y (key: X: MIC of less than 1 ng/mL; Y: MIC of 1 μg/mL to 10 μg/mL; Z: MIC of greater than 10 μg/mL)”.
